Tested on: human peripheral blood mononuclear cells (PBMCs)
Assay: IFN-α secretion by human PBMC (ELISA)
Assay type: cell-based
Settings: for EC50: human PBMCs from healthy donors, IFN-α in supernatant by ELISA; for EC50 / IFN-α Max: 24 hours incubation; for IFN-α Max / maximum IFN-α levels induced, as compared to C69-10 and C69-11: human PBMCs; for IFN-α Max: ELISA, limit of maximal/minimal detection 13160/102 pg/ml; for maximum IFN-α levels induced, as compared to C69-10 and C69-11: 24 hours, result in words
Description: The activity of a candidate TLR9 agonist may be assessed in vitro by measuring interferon-alpha secretion by human peripheral blood mononuclear cells (PBMC) with an enzyme linked immunosorbent assay (ELISA). In particular, human PBMC are contacted with a series of graded doses of the candidate TLR9 agonist (and controls) for a period of about 24 hours. The EC50 value (in nM) and a max production level (in pg/mL) are then determined from a dose-response curve.
Activity of oligonucleotides (PN) was assessed in vitro by measurement of cytokine secretion by human peripheral blood mononuclear cells (PBMCs).
PBMCs were isolated from blood of healthy human donors using Ficoll-Paque. For IFN-α induction, duplicate cultures of PBMCs were incubated for 24 hours with increasing concentrations of oligonucleotides. IFN-α levels in cell culture supernatants were measured by ELISA (PBL Biomedical Laboratories, Piscataway, N.J.). The limit of maximal/minimal detection was 13160/102 pg/ml.

Substance	EC50	IFN-α Max	maximum IFN-α levels induced, as compared to C69-10 and C69-11
C69-01: 5′-TCG AACGTTCGAACGTTCGAA CGTTCGAAT-3′ (SEQ ID NO: 4), CpG-C 2′-deoxyribopolynucleotide, phosphorothioate backbone (DNA TCGAACGTTCGAACGTTCGAACGTTCGAAT; DNA, all phosphorothioate, methylation of C not given here)	61 nM	6030 pg/mL	Higher maximum IFN-α levels
C69-02: 5′-TCG AACGTTCGAACGTTCGAA CGTT-3′ (SEQ ID NO: 5), phosphorothioate backbone (DNA TCGAACGTTCGAACGTTCGAACGTT; DNA, all phosphorothioate, methylation of C not given here)	49 nM	6008 pg/mL	Higher maximum IFN-α levels
C69-10: 5′-TTCG AACGTTCGAACGTTCGAAT-3′ (SEQ ID NO: 23), phosphorothioate backbone (DNA TTCGAACGTTCGAACGTTCGAAT; DNA, all phosphorothioate, methylation of C not given here)	58 nM	3820 pg/mL	
C69-11: 5′-TTTTCG AACGTTCGAACGTTCGAAATT-3′ (SEQ ID NO: 24), phosphorothioate backbone (DNA TTTTCGAACGTTCGAACGTTCGAAATT; DNA, all phosphorothioate, methylation of C not given here)	65 nM	1239 pg/mL	

— patent US20210315991A1, “COMBINATION INCLUDING A CPG-C TYPE OLIGONUCLEOTIDE AND A PD-1 ANTAGONIST FOR TREATING BREAST CANCER” (Surefire Medical, Inc. d/b/a TriSalus Life Sciences, priority 2018, published 2021)
